Target: T1, Ketohexokinase (KHK) (Homo sapiens, UniProt P50053)
T1 construct: His tag; made in house; host or cells: E. coli
T1 sequence (P50053 1-298): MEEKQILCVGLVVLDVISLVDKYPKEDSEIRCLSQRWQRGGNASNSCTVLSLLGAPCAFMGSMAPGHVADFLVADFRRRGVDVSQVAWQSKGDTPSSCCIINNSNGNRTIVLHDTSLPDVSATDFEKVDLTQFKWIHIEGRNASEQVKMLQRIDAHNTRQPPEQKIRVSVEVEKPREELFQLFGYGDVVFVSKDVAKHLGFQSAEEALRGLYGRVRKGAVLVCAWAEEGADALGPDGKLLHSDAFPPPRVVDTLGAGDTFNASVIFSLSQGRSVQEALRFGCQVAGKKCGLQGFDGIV
Test: measurement of activity in vitro of ketohexokinase inhibitor (Transcreener ADP2 TR-FRET Red Assay, ADP produced)
Assay type: biochemical
Settings: KHK pre-reacted with inhibitor 30 minutes, then substrate (ATP, fructose) 15 minutes; Ki by Morrison equation
Procedure: Ketohexokinase (KHK) was expressed in E. Coli and purified using His tag. In order to measure the activity of the purified KHK, Transcreener ADP2 TR-FRET Red Assay kit of BellBrook Labs was used. A method of measuring the amount of ADP produced was used using TR-FRET after reacting a solution including a suitable concentration of KHK protein and ATP, and fructose for 15 minutes. In order to see the activity of a ketohexokinase (KHK) inhibitor, ketohexokinase (KHK) and a suitable concentration of an inhibitor were reacted first for 30 minutes, and then, reacted with a solution including the substrate of ketohexokinase (KHK) for 15 minutes. Then, reaction for TR-FRET was performed for 1 hour, and fluorescence was measured using Envision equipment of PerkinElmer. According to the optimization procedure of TR-FRET published by BellBrook Lab, the set value of the Envision equipment was determined.
The result values by concentration of the ketohexokinase (KHK) inhibitor were determined as the ratio of a wavelength of 665 nm and a wavelength of 615nm. The 665/615 ratio value by concentration of each inhibitor was converted to ADP concentration based on ADP standard curve, and inhibition activity Ki value was obtained using Morrison equation by statistical software (Prizm). Meanwhile, the Ki value is a value representing the binding affinity of the inhibitor and an enzyme, and a lower value means better inhibitory activity.

Row | Structure (SMILES) | Ki
1 | C[C@H]1CCN1c1nc(N2CCN(CC(=O)N3CCOCC3)CC2)c2c(n1)C(F)(F)CC2 [Example 14, (S)-2-4-(7,7-difluoro-2-(2-methylazetidin-1-yl)-6,7-dihydro-5H-cyclopenta[d]pyrimidin-1-yl)-1-(piperazin-1-yl)morpholinoethan-1-one] | 10 to 100 nM
2 | C[C@H]1CCN1c1nc(N2CCN(C(=O)CC(=O)N3CCNCC3)CC2)c2c(n1)C(F)(F)CC2 [Example 15] | ≤ 10 nM
3 | C[C@H]1CCN1c1nc(N2CC[C@@H](OCC(=O)N3CCNCC3)C2)c2c(n1)C(F)(F)CC2 [Example 8, 2-(((R)-1-(7,7-difluoro-2-((S)-2-methylazetidin-1-yl)-6,7-dihydro-5H-cyclopenta[d]pyrimidin-4-yl)pyrrolidin-3-yl)oxy)-1-(piperazin-1-yl)ethan-1-one] | ≤ 10 nM
4 | CC(=O)N1CCN(C(=O)C[C@@H]2[C@@H]3C[C@H]2CN(c2nc(N4CC[C@@H]4C)nc4c2CCC4(F)F)C3)CC1 [Example 22, 1-(4-acetylpiperazin-1-yl)-2-((1R,5S,6S)-3-(7,7-difluoro-2-((S)-2-methylazetidin-1-yl)-6,7-dihydro-5H-cyclopenta[d]pyrimidin-4-yl)-3-azabicyclo[3.1.1]heptan-6-yl)ethan-1-one] | 100 to 1000 nM

Other lines, results leading:

Row | Ki | Structure (SMILES)
5 | ≤ 10 nM | Cc1c(N2CC(OCC(=O)N3CCNCC3)C2)nc(N2CC[C@@H]2C)nc1C(F)(F)F [Example 26, (S)-2-((1-(5-methyl-2-(2-methylazetidin-1-yl)-6-(trifluoro)pyrimidin-4-yl)azetidin-3-yl)oxy)-1-(piperazin-1-yl)ethan-1-one]
6 | ≤ 10 nM | C[C@H]1CCN1c1nc(N2CCN(CC(=O)N3CCNCC3)C(=O)C2)c2c(n1)C(F)(F)CC2 [Example 16, (S)-4-(7,7-difluoro-2-(2-methylazetidin-1-yl)-6,7-dihydro-5H-cyclopenta[d]pyrimidin-4-yl)-1-(2-oxo-2-(piperazin-1-yl)ethyl)piperazin-2-one]
7 | ≤ 10 nM | C[C@H]1CCN1c1nc(-c2ccc(OCC(=O)N3CCNCC3)nc2)cc(C(F)(F)F)n1 [Example 39, (S)-2-((5-(2-(2-methylazetidin-1-yl)-6-(trifluoromethyl)pyrimidin-4-yl)pyridin-2-yl)oxy)-1-(piperazin-1-yl)ethan-1-one]
8 | ≤ 10 nM | C[C@H]1CCN1c1nc(N2CCN(CC(=O)N3CCNCC3)CC2)cc(C(F)(F)F)n1 [Example 11, (S)-2-(4-(2-(2-methylazetidin-1-yl)-6-(trifluoromethyl)pyrimidin-4-yl)piperazin-1-yl)-1-(piperazin-1-yl)ethan-1-one]
